Measurements as given in patent EP4702986A1, “POLYPEPTIDE AND USE THEREOF” (Biocells (Beijing) Biotech Co., Ltd., priority 2023, dated 2024).
pEC50: −log10 of the molar value. Numbered stars: 1 amine (or outer) side, 2 acyl side, 3 side chain; on linkers, the order of the positions; unused ones are H or OH. Side chains are listed from the residue outwards. Ends that are not written are not given here. Peptide text beside a SMILES is read from it. * marks the point of attachment. X1 = C[C@H](NC(=O)[C@@H]1CCCN1C(=O)[C@@H](N)CSC1CC(=O)N(CCC(=O)*)C1=O)C(=O)N[C@@H](CCCCN)C(=O)O; γGlu = O=C(O)[C@H](CCC(=O)[*:2])N[*:1]; Fumaroyl = O=C(O)/C=C/C(=O)*; Suc = O=C(CCC(=O)[*:2])[*:1]; Lauroyl = CCCCCCCCCCCC(=O)*; AEEA = NCCOCCOCC(=O)O

Biological target: T1, rat ETB receptor (Rattus norvegicus, UniProt P21451)
T1 construct: expressed in transfected cells
T1 sequence (P21451 27-442): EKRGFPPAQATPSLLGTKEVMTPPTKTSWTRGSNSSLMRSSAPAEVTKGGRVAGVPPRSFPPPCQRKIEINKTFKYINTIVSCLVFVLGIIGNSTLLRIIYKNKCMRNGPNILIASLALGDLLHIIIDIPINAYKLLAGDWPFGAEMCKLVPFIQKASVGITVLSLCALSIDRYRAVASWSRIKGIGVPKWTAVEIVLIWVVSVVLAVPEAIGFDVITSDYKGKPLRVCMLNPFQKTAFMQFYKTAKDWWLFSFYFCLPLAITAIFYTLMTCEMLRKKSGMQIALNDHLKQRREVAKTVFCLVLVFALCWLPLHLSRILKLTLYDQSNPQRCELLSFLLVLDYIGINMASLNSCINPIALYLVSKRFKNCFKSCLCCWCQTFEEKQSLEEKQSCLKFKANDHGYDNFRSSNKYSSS
Test: Determination of EC50s of polypeptides against rat ETB receptor
Type: cell-based
Details: Table 8, rat ETB receptor; for pEC50: read-out: DETAR Agonist Activity EC50
Method: 293T-17 cells were seeded at a density of 650,000 cells per well in a 6-well plate and cultured overnight in an incubator at 37°C and 5% CO2. Afterward, the cells were transfected with an expression vector, PCDNA3.1-hETB which contained a human ETB receptor gene, at a plasmid concentration of 2.5 µg per well. The cells were further cultured for 48 hours, and green fluorescence expression was observed under a fluorescence microscope. The cells were then digested with trypsin and counted. The activity of compounds on the human ETB receptor was determined with the IP-One Gq kit from Cisbio Bioassays. The cells were suspended in Stim Buffer provided in the kit and the cell suspension was added to a 96-well detection plate at 7 µL cell suspension (containing 30,000 cells) per well. The polypeptides to be tested (prepared according to the Preparation Example of the invention) were diluted in Stim B to obtain a gradient of 11 concentration points. For each concentration point, the polypeptides to be tested were dissolved in Stim B to be at a concentration of 2×, and added at 7 µL to the test cells, while 7 µL of PBS solution was added to the cells in the negative control wells. The plate was sealed and incubated at 37°C for 1 hour in a cell culture incubator. Detection wells, positive control wells containing human endothelin ET1 (ET1: […] (C1-C15,C3-C11)), and PBS control wells were each added with 3 µL of IP1 d2 working solution and 3 µL of IP1 Tb cryptotate Antibody working solution. The plate was then sealed and incubated in the dark at room temperature (25°C±5°C) for 1 hour. The plate seal was removed, and the […] at 665 nm and 620 nm was measured with an ID5 microplate reader. The ratio of the acceptor emission signal to the donor emission signal, i.e., (signal at 665 nm/signal at 620 nm)×10^4, was calculated for each well. With F representing the average value of values of signal at 665 nm/signal at 620 nm for the test samples at various concentrations, a scatterplot was plotted, where the abscissa represented the F value, and the ordinate represented the logarithmic value of the peptide concentration. A curve was fitted with an appropriate method to calculate EC50 values of the polypeptides against the human ETB receptor. Another method was provided for fitting a curve where activation rate of the test polypeptides at each concentration relative to the positive control sample human endothelin ET1 was calculated first with the method in Example 1, and a scatterplot was plotted, where the abscissa represented the activation rate, and the ordinate represented the logarithmic value of the polypeptide concentration. A curve was fitted with an appropriate method to calculate the EC50 values of the polypeptides against the human ETB receptor.
The process is the same as that in Example 3, except that the transfected plasmid was expression vector PCDNA3.1-RETB which contained a rat ETB receptor gene. EC50 values of the polypeptides against the rat ETB receptor were calculated (see Figures 11-13). The sequence of the rat ETB receptor (NCBI accession number: X57764.1).

CCCCCCCCCCCC(=O)N[C@@H](CCC(=O)NCCOCCOCC(=O)NCCCC[C@H](NC(=O)[C@H](Cc1c[nH]cn1)NC(=O)[C@H](C)NC(=O)[C@H](Cc1ccccc1)NC(=O)[C@H](Cc1ccc(O)cc1)NC(=O)[C@@H](NC(=O)[C@H](C)NC(=O)[C@H](CCC(=O)O)NC(=O)[C@H](CCC(=O)O)NC(=O)[C@H](CC(=O)O)NC(=O)/C=C/C(=O)O)C(C)C)C(=O)N[C@@H](CC(=O)O)C(=O)N[C@H](C(=O)N[C@H](C(=O)N[C@@H](Cc1c[nH]c2ccccc12)C(=O)O)[C@@H](C)CC)C(C)C)C(=O)O [BX229-Na] (Fumaroyl-DEEAVYFAHK([AEEA-γGlu-Lauroyl])DVIW-OH)
pEC50: 8.14

CC[C@H](C)[C@H](NC(=O)[C@H](CC(=O)O)NC(=O)[C@H](CCCCNC(=O)COCCOCCNC(=O)CCN1C(=O)CC(SC[C@H](N)C(=O)N2CCC[C@H]2C(=O)N[C@@H](C)C(=O)N[C@@H](CCCCN)C(=O)O)C1=O)NC(=O)[C@H](Cc1c[nH]cn1)NC(=O)[C@H](C)NC(=O)[C@H](Cc1ccccc1)NC(=O)[C@H](Cc1ccc(O)cc1)NC(=O)[C@@H](NC(=O)[C@H](C)NC(=O)[C@H](CCC(=O)O)NC(=O)[C@H](CCC(=O)O)NC(=O)[C@H](CC(=O)O)NC(=O)/C=C/C(=O)O)C(C)C)C(=O)N[C@H](C(=O)N[C@@H](Cc1c[nH]c2ccccc12)C(=O)O)[C@@H](C)CC (some centres unmarked) [BX-95] (Fumaroyl-DEEAVYFAHK([AEEA-X1])DIIW-OH)
pEC50: 7.62

Fum-DEEEVYFAHKDIIW (Fumaroyl-DEEEVYFAHKDIIW) [BX-52]
DETAR Agonist Activity, % (@10nM): 22.36%@10n M | DETAR Agonist Activity, % (@100nM): 389.09%@100 nM

Fum-DEEEVYFAHOrnDIIW [BX-59]
DETAR Agonist Activity, % (@10nM): 314.15%@10n M | DETAR Agonist Activity, % (@100nM): 46.94%@100n M

Suc-DE cyclo(CEEC)YFAHKDIIW (Suc-DECEECYFAHKDIIW; not fully specified (bridges); printed as Suc-DE cyclo(CEEC)YFAHKDIIW; also: cyclo(CEEC) in N-terminal extension, bond type not given here) [BX-57]
DETAR Agonist Activity, % (@10nM): 67.42% | DETAR Agonist Activity, % (@100nM): 218.34%
